The source of these data is US6521623B1, “N,N'-disubstituted benzimidazolone derivatives with affinity at the serotonin and dopamine receptors” (Boehringer Ingelheim Pharma KG, priority 2000, dated 2003).

One assay concerns the target T1, 5-HT2A (Rattus norvegicus, UniProt P14842).
T1 construct: Cerebral frontal cortex was homogenized in 10 volumes of ice cold 0.32 M sucrose; from tissue; host or cells: rat cerebral frontal cortex membranes
The assay is described as follows: 5-HT2A Radioligand Receptor Binding Assay ([3H]-Ketanserin, cerebral frontal cortex membranes). Conditions: 0.5 nM [3H]-Ketanserin. The method, then: 5-HT2A Radioligand Receptor Binding Assay
Rats (male Sprague-Dawley, 200-250 g) were used. Cerebral frontal cortex was homogenized in 10 volumes of ice cold 0.32 M sucrose in 5 mM Tris-HCl ([…]) buffer. After centrifugation of the homogenate (1,000×g for 10 minutes) the supernatant was then recentrifuged at 48,000×g for 15 minutes. The resulting pellet was gently homogenized in an equal volume of 50 mM Tris-HCl buffer (pH 7.4) and incubated at 37° C. for 10 minutes. Membranes were then collected by centrifugation as above described and finally resuspended in 10 volumes of 50 mM Tris-HCl buffer (pH 7.4).
For displacement experiments membranes (980 μl) were diluted in 50 mM Tris-HCl buffer (pH 7.4) to a final concentration of 1:100 (w/v); the tissue suspension was then incubated at 37° C. for 10 minutes in a final volume of 1 ml in the presence of 0.5 nM [^3H]-Ketanserin. Non-specific binding was determined by incubating similar samples with unlabelled methysergide (100 μM). After incubation, samples prepared in a 24 wells cell culture cluster (Costar) were rapidly filtered by Inotech Cell Harvester (IH 201 filters). The filters were washed three times with 2 ml ice-cold Tris-HCl buffer and placed in polyethylene vials, then 4 ml of Filter Count scintillation cocktail (Packard) were added. The radioactivity present was counted by liquid scintillation spectrometry.
The affinity values (IC50) for the compounds were obtained by a nonlinear least squares regression analysis on the basis of a one binding site model.

A further assay has as its target T2, 5-HT1A (Homo sapiens, UniProt P08908).
T2 sequence (P08908 1-422): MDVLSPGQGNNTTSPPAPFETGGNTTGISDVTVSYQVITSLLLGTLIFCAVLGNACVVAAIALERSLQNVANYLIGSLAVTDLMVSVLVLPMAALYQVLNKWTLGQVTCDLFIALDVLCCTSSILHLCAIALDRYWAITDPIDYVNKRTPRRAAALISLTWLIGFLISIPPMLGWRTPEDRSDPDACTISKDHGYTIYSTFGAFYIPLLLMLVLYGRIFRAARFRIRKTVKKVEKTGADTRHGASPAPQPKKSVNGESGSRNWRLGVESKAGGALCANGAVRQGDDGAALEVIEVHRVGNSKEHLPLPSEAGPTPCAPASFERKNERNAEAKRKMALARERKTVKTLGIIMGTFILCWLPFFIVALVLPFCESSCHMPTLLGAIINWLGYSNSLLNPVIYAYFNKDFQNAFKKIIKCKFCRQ
Briefly: 5-HT1 Functional Assay (cAMP) in CHO/5-HT1A cells. Format: cell-based. Further details: expressed in transfected cells; host or cells: CHO/5-HT1A cells. The method, then:
5-HT1 Functional Assay (cAMP)
CHO/5-HT1A cells were random seeded at a density of about 200,000/well in 24 well plates the day prior to the experiment. On the day of the experiment, cells were pretreated for 15 minutes at 37° C. with 500 μM isobutylmethylxantine (IBMX) dissolved in culture medium without serum. Wells were then divided in different groups in duplicate as follows: control, 10 μM FSK, 10 μM FSK+1 μM 5-HT as positive standard and 10 μM FSK+10 μM of the different compound under evaluation. Sample solutions were added and incubated for additional 15 minutes at 37° C. After incubation, the medium was aspirated and the reaction stopped by adding 200 μl of lysis buffer. Plates were shaken for 5 minutes, then the lysate was removed and samples were stored at 4° C. until the day of the assay. For the cAMP evaluation, samples were properly diluted and the cAMP content was measured by an enzyme immunoassay system.

T1 sequence (P14842 whole entry): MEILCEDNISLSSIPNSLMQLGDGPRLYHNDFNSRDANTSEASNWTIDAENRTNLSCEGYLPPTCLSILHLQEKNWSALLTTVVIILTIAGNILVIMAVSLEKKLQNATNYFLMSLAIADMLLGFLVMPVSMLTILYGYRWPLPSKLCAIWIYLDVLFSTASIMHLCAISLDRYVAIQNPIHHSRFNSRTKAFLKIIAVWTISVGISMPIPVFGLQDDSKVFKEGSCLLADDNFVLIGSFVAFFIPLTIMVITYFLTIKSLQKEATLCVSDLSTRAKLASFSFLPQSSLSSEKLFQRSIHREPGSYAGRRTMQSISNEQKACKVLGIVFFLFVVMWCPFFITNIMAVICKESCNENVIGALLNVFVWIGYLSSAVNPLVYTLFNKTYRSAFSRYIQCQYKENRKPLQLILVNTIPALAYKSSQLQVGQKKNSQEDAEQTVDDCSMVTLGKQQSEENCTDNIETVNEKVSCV

Regarding `CCNC(=O)OCCn1c(=O)n(CCN2CCN(c3cccc(C)c3C)CC2)c2ccccc21` [Compound 215], the IC50 (usually the point on the concentration scale where inhibition reaches its midpoint) on 5-HT2A amounted to 3.2 nM. The inhibition (commonly the drop in the measured response relative to a control, in per cent) at 10 µM against 5-HT1A stood at 83%.
